Measurements: patent publication US8969415B2, “Intraocular drug delivery systems” (Allergan, Inc., priority 2006, dated 2015)
Where a name gives a salt, the structure may show the parent alone.

Assays:
[1] = in vivo
[2] = tested on: specific receptor target of brimonidine located in retina and iris-ciliary body

- vitreal clearance [1]: 0.487 mL/day
- brimonidine concentration required for optic neuroprotection [2]: ≥ 2 nM
SMILES: Brc1c(NC2=NCCN2)ccc2nccnc12 [brimonidine, 5-bromo-6-(2-imidazolidinylideneamino)quinoxaline tartrate]
